From US7049321B2, “Methods and pharmaceutical compositions for treatment of central and peripheral nervous system disorders and compounds useful therefor” (Israel Institute for Biological Research, priority 2002, dated 2006)
Entries after “also recorded” stand apart in the source; their conditions may differ.

Legend:
M1 receptors = target: T1, M1 receptors (Rattus norvegicus, UniProt P08482); assay: [3H]PZ competition binding to rat cortical membranes; details: for Ki: rat cortex
T1 construct: from tissue; host or cells: rat cortical membranes
T1 sequence (P08482 1-460): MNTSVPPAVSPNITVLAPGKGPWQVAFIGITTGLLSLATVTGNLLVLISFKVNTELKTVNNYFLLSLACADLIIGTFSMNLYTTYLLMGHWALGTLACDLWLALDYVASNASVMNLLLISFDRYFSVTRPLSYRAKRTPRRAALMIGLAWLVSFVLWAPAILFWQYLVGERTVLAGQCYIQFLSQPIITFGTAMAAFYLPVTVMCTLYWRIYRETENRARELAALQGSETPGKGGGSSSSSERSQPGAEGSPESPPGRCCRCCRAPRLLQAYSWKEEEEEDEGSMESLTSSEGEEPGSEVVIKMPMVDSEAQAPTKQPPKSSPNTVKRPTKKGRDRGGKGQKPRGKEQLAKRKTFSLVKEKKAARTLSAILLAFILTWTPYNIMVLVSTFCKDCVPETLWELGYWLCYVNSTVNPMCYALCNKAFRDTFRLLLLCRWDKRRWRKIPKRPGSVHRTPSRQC
Excerpt: Pirenzepine (PZ), a muscarinic antagonist, binds preferentially to M1 receptors while OXO-M binds to all mAChR subtypes non-selectively; the ratio between the Ki values for PZ versus that of OXO-M may be indicative of the selectivity of the tested compound. The smaller the ratio, the more M1 selective is the tested compound. […] The OXO-M/PZ ratio is ˜0.36 showing a moderately high selectivity for the M1 receptor.

[1] = Chronic toxicity up to 13 weeks, rat; format: in vivo, Wistar rat
[2] = test system: Opiods/Opiate, Non-Selective; assay: Opiate non-selective binding; details: at 10^−4 M
in vivo = details: rat
[3] = mouse, in vivo
β-catenin = β-catenin stabilization in rat hippocampal neurons; format: cell-based
Procedure: This study was performed in rat hippocampal primary cell cultures using the methods described by Garrido J L et al. (FASEB J 2002; 16:1982).

[4] = pKa and free-base fraction of AF267B; details: pH=7.35 of CSF, calculated from pKa
cholesterol-fed rabbits = assay: Aβ immunoreactivity in cortex of hypercholesterolemic rabbits; format: in vivo, New Zealand white rabbits; details: 1 mg/kg, s.c., 10 weeks
Protein binding, PBS = format: in vitro ADME; details: 10 μM
Procedure: Protein binding studies were carried out in human plasma, α1-glycoprotein, human serum albumin (HSA), and Dulbecco's Phosphate Buffered Saline (PBS). AF292 was added to a final concentration of 10 μM. […] (μM) and in human […] (AGP), (see Table 1).

[5] = target: mAChR receptors, Rat Cortical (CTX) Membranes; format: binding; details: read-out: Ki, QNB
Caco-2 cell permeability = format: in vitro ADME, human; details: human, Caco-2; bi-directional assay; read-out: average permeability coefficient (Papp)
Procedure: (§1) This test is used to determine intestinal permeability of tested compounds. Caco-2 cells, when grown on semipermeable filters, spontaneously differentiate in culture to form confluent monolayers which both structurally and functionally resemble the small intestinal epithelium. Because of this property they are useful as an in vitro model for the study of drug absorption and metabolism during absorption in the intestinal mucosa. Caco-2 monolayers were grown to confluence on collagen-coated, microporous, polycarbonate membranes in 12 well plates and permeability of the test material was determined.

Caco-2 monolayers = assay: Caco-2 cell permeability; format: in vitro ADME, human
Procedure: as §1

[6] = test system: adenosine, adrenergic, angiotensin, BZD, bradykinin, CCK, dopamine, opiate, serotonin and other receptors, ion channels, NE transporter; assay: Binding panel of other receptors, channels and transporter (AF292); details: 10 μm
[7] = Cardiac electrophysiology and haemodynamics in awake dogs; format: in vivo, Beagle dogs; details: 5 mg/kg orally
Procedure: (§2) • 1. Astemizole (human ether-a-go-go related gene (HERG) Channel) Binding Assay. […] Isolated Guinea Pig Right Atrium (atrial fibrillation). […] Effects of AF292 (dose 5 mg/kg orally) on cardiac electrophysiological, cardio-haemodynamic in instrumented, awake dogs. Healthy trained and chronically instrumented female Beagle dogs of varying age and ranging in body weight from 9.4 to 12 kg, were used for recording of the cardiovascular parameters: heart rate, diastolic and systolic blood pressure, pressure rate product, LV dp/dt max, LV dp/dt max/pd, LV dp/dt min, cardiac output, stroke volume, systemic vascular resistance and the ECG parameters (PQ-, QRS-, QT-, QTcBazett-(QTcB), QTcFridericia-(QTcF) and QTcVan de Water-(QTcVdW) interval duration and QT-dispersion. During the last 18 hours prior to the experiments, the dogs had no access to food. Water was available ad libitum. At the beginning of each experiment, control values of the various parameters were recorded for at least 30 min. Thereafter, 5 mg/kg of AF292 (n=4) or the corresponding volume of the solvent (n=4) was administered orally by gavage. The various haemodynamic parameters were recorded continuously for 4 hours thereafter.

CYP3A4 = CYP3A4 (Homo sapiens, UniProt P08684); assay: Cytochrome P450 inhibition, CYP3A4; format: in vitro ADME; details: up to 10 μM
Procedure: Cytochrome P450 activity can be an indicator for potential drug-drug interactions. AF292 was evaluated in a microtiter plate assay for P450 inhibition.

M2 mAChR = target: T2, M2 mAChR (Homo sapiens, UniProt P08172); assay: Intracellular Ca increase in modified cell cultures, M2; format: cell-based; details: 10^−9–10^−3M
T2 construct: expressed in transfected cells; host or cells: 'modified cell cultures' giving a Ca increase; modification not described

trihexyphenidyl rats = assay: Passive avoidance in trihexyphenidyl-treated rats; format: in vivo, Wistar rats; details: 0.03 mg/kg, po, 72 hrs delay; DDW 93.1±29.0
hERG-encoded channel = hERG-encoded channel (Homo sapiens, UniProt Q12809); assay: Astemizole (HERG channel) binding assay
Procedure: as §2

M3 (human) = M3 (human) (Homo sapiens, UniProt P20309); assay: Binding study, M3 (human); details: 10 μm
M3 (human), sequence (P20309 whole entry): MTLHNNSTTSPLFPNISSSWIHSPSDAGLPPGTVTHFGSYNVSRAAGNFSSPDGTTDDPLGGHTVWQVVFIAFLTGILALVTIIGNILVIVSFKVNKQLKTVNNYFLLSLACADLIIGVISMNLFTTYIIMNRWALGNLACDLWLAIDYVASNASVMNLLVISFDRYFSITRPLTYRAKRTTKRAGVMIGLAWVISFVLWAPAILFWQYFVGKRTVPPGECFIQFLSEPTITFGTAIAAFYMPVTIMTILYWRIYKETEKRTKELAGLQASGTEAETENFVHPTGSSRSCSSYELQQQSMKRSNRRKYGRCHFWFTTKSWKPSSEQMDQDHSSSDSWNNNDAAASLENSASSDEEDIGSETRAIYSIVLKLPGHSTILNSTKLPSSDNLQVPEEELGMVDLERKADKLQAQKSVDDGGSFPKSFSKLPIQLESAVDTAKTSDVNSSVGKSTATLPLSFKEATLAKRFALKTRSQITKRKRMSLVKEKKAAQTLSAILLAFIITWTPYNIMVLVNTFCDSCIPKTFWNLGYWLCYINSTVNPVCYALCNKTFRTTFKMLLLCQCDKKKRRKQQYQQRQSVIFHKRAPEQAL

T2 sequence (P08172 whole entry): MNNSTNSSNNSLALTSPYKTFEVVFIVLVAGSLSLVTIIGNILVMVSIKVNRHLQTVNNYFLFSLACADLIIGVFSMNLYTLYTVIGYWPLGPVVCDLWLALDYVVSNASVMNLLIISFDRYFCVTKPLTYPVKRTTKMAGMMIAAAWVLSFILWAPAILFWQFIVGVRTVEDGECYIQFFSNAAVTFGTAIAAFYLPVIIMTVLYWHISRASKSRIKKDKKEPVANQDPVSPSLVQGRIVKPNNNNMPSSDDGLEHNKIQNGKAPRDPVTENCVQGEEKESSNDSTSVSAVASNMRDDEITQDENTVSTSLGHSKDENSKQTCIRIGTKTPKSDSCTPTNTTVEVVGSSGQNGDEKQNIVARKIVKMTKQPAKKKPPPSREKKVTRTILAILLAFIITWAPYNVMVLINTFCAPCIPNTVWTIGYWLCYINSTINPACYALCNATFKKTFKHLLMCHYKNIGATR
CYP3A4, sequence (P08684 whole entry): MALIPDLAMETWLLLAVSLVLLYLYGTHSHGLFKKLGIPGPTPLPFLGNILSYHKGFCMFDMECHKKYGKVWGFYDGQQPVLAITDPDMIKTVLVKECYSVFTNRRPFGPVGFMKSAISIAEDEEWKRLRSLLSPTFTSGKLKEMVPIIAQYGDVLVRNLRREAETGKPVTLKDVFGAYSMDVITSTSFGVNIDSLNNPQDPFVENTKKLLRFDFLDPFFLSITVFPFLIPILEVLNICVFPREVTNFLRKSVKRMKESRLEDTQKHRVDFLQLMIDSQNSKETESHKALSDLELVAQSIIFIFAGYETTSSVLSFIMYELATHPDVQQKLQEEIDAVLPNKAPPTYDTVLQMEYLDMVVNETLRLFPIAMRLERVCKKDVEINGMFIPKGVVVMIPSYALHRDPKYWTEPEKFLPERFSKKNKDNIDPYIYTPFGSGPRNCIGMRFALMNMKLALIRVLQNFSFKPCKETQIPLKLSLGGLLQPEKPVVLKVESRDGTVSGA
hERG-encoded channel, sequence (Q12809 whole entry): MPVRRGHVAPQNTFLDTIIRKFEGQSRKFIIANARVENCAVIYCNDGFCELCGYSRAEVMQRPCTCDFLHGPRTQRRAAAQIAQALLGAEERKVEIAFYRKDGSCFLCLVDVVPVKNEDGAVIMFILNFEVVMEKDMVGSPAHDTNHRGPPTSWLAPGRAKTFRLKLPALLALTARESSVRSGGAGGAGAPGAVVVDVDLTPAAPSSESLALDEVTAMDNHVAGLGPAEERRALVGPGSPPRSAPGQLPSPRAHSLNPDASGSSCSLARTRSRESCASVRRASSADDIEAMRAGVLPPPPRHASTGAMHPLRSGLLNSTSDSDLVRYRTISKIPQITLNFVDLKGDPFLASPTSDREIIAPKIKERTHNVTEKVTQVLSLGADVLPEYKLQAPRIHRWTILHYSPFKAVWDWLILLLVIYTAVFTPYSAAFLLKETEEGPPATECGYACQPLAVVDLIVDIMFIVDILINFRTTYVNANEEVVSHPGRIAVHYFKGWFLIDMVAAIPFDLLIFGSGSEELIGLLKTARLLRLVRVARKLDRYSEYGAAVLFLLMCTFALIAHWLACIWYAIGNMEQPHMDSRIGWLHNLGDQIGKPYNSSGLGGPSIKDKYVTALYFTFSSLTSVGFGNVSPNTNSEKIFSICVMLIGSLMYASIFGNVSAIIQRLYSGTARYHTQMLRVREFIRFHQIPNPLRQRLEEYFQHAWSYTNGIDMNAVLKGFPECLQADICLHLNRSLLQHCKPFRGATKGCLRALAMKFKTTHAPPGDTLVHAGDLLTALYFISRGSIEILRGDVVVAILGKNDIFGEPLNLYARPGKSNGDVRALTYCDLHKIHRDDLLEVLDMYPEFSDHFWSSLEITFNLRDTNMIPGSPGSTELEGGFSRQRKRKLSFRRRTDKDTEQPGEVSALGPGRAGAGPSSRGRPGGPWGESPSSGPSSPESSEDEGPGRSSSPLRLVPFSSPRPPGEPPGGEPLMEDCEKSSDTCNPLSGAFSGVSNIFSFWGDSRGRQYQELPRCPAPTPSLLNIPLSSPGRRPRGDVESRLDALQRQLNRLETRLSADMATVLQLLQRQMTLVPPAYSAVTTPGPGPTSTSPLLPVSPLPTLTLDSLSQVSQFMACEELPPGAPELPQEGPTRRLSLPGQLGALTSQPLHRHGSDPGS

Q: With CC[C@@H]1SC2(CCN(C)CC2)NC1=O [AF267B, (S)-2-ethyl-8-methyl-1-thia-4,8-diaza-spiro[4.5]decan-3-one] as the molecule, how does the Ki (M1 receptors) read?
A: The Ki was 3.74 ± 0.59 µM.

Q: And the “Dose at which effects are seen” value [1]?
A: The value was > 40 mg/kg.

Q: And the “% inhibition” value [2]?
A: Its value is 52.5%.

Q: And the Kp (in vivo; female, iv, 1 mg/kg)?
A: Its Kp is 1.32.

Q: What about the Kp (in vivo; female, po, 2 mg/kg) of the same molecule?
A: The Kp was 1.25.

Q: What about the Kp (in vivo; male, iv, 1 mg/kg) of the same molecule?
A: The Kp was 1.79.

Q: What about the Kp (in vivo; male, po, 2 mg/kg) of the same molecule?
A: The Kp was 2.43.

Q: And the “time detected in the brain after dosing” value [3]?
A: The value was 2 to 240 min.

Q: And the “soluble β-catenin level” value (β-catenin; 1 μM)?
A: The value was 100%.

Q: What about the “nuclear β-catenin vs control” value (β-catenin; 1 μM, Aβ1–40 (5 μM)) of the same molecule?
A: The value was 140%.

Q: What about the “soluble β-catenin level” value (β-catenin; 10 μM) of the same molecule?
A: Its value is 300%.

Q: And the “soluble β-catenin level” value (β-catenin; 100 μM)?
A: Its value is 350%.

Q: What about the “Aβ-induced degradation of soluble β-catenin” value (β-catenin; 100 μM, Aβ1–40 (5 μM)) of the same molecule?
A: Its value is “this degradation was prevented”.

Q: What about the “% of compound in free base form” value [4] of the same molecule?
A: The value was 26.2%.

Q: And the “Reduction of intensity of the immunoreactivity” value (cholesterol-fed rabbits)?
A: Its value is “approximately 50%”.

Q: And the “Reduction of number of neurons expressing Aβ immunoreactivity” value (cholesterol-fed rabbits)?
A: Its value is 25–30%.

Q: What about the “Protein Binding” value (Protein binding, PBS) of the same molecule?
A: Its value is “PBS = 0%”.

Q: And the Ki [5]?
A: The Ki was 49.6 ± 9 µM.

Q: What does the source list for CC[C@@H]1SC2(CCNCC2)NC1=O [AF292, (S)-2-Ethyl-1-thia-4,8-diaza-spiro[4.5]decan-3-one]?
A: Papp (Caco-2 cell permeability): 17.4 ×10⁻⁶ cm/s; Absorption potential ranking (Caco-2 monolayers): high absorption potential; Binding to panel [6]: no binding at all; OXO-M/PZ ratio (M1 receptors): ~0.36; Ki (M1 receptors): 1.64 µM; Hemodynamic and ECG parameters [7]: no statistically significant and relevant effect; Protein Binding (Protein binding, PBS): 0% and PBS = 0%; Inhibition of CYP3A4 (CYP3A4): did not induce significant inhibition; Agonist activity at M2 (M2 mAChR): inactive as an agonist; also recorded: M2 mAChR - no effects as agonist; Retention latency (trihexyphenidyl rats): 225.9 ± 36 s; [3H]-Astemizole binding inhibition (hERG-encoded channel): inactive; Binding, % (M3 (human)): 55%
